Consider eight compounds from US12233161B1, “Lipids and lipid nanoparticle formulations” (LONGUIDE BIOPHARMA CORPORATION, priority 2024, dated 2025).

Data set [1] has as its system mice. Kind of data set: In vivo delivery of FLuc-mRNA lipid nanoparticles in mice, in vivo imaging (IVIS). In short, it runs like this: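 Mice (n=3) received about 75 μL FLuc-mRNA LNP per mouse intramuscularly (rectus femoris), intravenously (tail vein), intraperitoneally or subcutaneously (back). After injection, D-luciferin (200 μL, 15 mg/mL) was given i.p. 10-15 min before IVIS imaging.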

Data set [2] in a line: Particle size and PDI of nucleic acid lipid nanoparticle preparations by dynamic light scattering. It counts as physicochemical. In short, it runs like this:
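Nanoparticle suspension (about 0.04 mg/mL mRNA) diluted in ultrapure water, mixed by gentle pipetting; particle size measured by dynamic light scattering. Zeta potential measured on the recovered sample after further dilution in ultrapure water.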

Data set [3] concerns mice. Kind of data set: In vivo delivery of FLuc-circ-RNA lipid nanoparticles in mice. The conditions noted are these: Fluc-circ-RNA LNP, organ not given. How it is done: Lipid nanoparticles loaded with nucleic acid drugs were prepared according to step 2, replacing FLuc-mRNA with FLuc-circ-RNA (Hongene Biotech Corporation, Shanghai). After formulation, the nanoparticles were administered via intramuscular injection (into the quadriceps femoris muscle of mice), intravenous injection (into the tail vein of mice), intraperitoneal injection, or subcutaneous injection (subcutaneously on the back). Approximately 75 μL was injected per mouse, with a total of 3 mice per group. In vivo imaging (PerkinElmer, IVIS Lumina III) was performed after a certain period of time. Ten to fifteen minutes before imaging, 200 μL of a 15 mg/mL D-Luciferin working solution was injected intraperitoneally, followed by imaging analysis using the in vivo imaging system.

Data set [4] in a line: Potential characterization of nucleic acid lipid nanoparticle preparations. It counts as physicochemical. Summed up: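 Zeta potential was read on a Malvern ZEN3700 after diluting 20 μL lipid nanoparticle solution (about 0.04 mg/mL mRNA) into 780 μL ultrapure water. Alternatively, a 27.5 μL sample in 200 μL water was first sized by dynamic light scattering, then diluted with 600 μL more water for potential measurement.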

Where [5] appears, read: DMG-PEG2000:DSPC:Chol:Lipid 1.40:11.15:38.95:48.50, N/P 10, IV, liver.
[6] abbreviates: DMG-PEG2000:DSPC:Chol:Lipid 1.40:11.15:38.95:48.50, N/P 10, IV, lung.
Where [7] appears, read: DMG-PEG2000:DSPC:Chol:Lipid 1.40:11.15:38.95:48.50, N/P 10, IV, spleen.
The mark [8] stands for this setting: DMG-PEG2000:DSPC:Chol:Lipid 1.40:11.15:38.95:48.50, N/P 10, mRNA LNP, preparation given IH.
The mark [9] stands for this setting: DMG-PEG2000:DSPC:Chol:Lipid 1.40:11.15:38.95:48.50, N/P 10, mRNA LNP, preparation given IV.
Setting [10] is: Fluc-circ-RNA LNP, preparation given IM.
Setting [11] is: Fluc-circ-RNA LNP, preparation given IV.
[12] abbreviates: IM, DMG-PEG2000:DSPC:Chol:compound 1.40:11.15:38.95:48.50, N/P 20, Fluc-mRNA.
[13] abbreviates: DMG-PEG2000:DSPC:Chol:compound 1.40:11.15:38.95:48.50, N/P 20.
[14] abbreviates: IM, DMG-PEG2000:DSPC:Chol:compound 1.40:11.15:38.95:48.50, N/P 30, Fluc-mRNA.
Setting [15] is: IV, organ not given, DMG-PEG2000:DSPC:Chol:compound 1.40:11.15:38.95:48.50, N/P 30, Fluc-mRNA.
[16] abbreviates: DMG-PEG2000:DSPC:Chol:compound 1.40:11.15:38.95:48.50, N/P 30.
The mark [17] stands for this setting: IV, organ not given, DMG-PEG2000:DSPC:Chol:compound 1.40:11.15:38.95:48.50, N/P 20, Fluc-mRNA.
The mark [18] stands for this setting: IV, body, DMG-PEG2000:DSPC:Chol:compound 1.40:11.15:38.95:48.50, N/P 30, Fluc-mRNA.
Setting [19] is: IV, liver, DMG-PEG2000:DSPC:Chol:compound 1.40:11.15:38.95:48.50, N/P 30.
[20] abbreviates: IV, liver, DMG-PEG2000:DSPC:Chol:compound 1.40:11.15:38.95:48.50, N/P 30, Fluc-mRNA.
The mark [21] stands for this setting: IV, lung, DMG-PEG2000:DSPC:Chol:compound 1.40:11.15:38.95:48.50, N/P 30.
[22] abbreviates: IV, lung, DMG-PEG2000:DSPC:Chol:compound 1.40:11.15:38.95:48.50, N/P 30, Fluc-mRNA.
Where [23] appears, read: IV, spleen, DMG-PEG2000:DSPC:Chol:compound 1.40:11.15:38.95:48.50, N/P 30.
Setting [24] is: IV, spleen, DMG-PEG2000:DSPC:Chol:compound 1.40:11.15:38.95:48.50, N/P 30, Fluc-mRNA.

Take `CCCCCCCCCCCOC(=O)CCCCCN(CCO)CCCCCCCC(=O)OC(CCCCCCCC)CCCCCCCC` [SM-102, reference compound]: the IVIS is reported as 1.62 × 10^7 in the data set with mice [1] (DMG-PEG2000:DSPC:Chol:Lipid 1.40:11.15:38.95:48.50, N/P 10, IH, whole body scan); 6.67 × 10^7 with mice [1] (DMG-PEG2000:DSPC:Chol:Lipid 1.40:11.15:38.95:48.50, N/P 10, IM, whole body scan); 1.02 × 10^8 in the data set with mice [1] (DMG-PEG2000:DSPC:Chol:Lipid 1.40:11.15:38.95:48.50, N/P 10, IV, body); 1.99 × 10^7 in the data set on mice [1] (setting [5]); 3.11 × 10^5 in the data set with mice [1] (setting [6]); 1.23 × 10^7 in the data set on mice [1] (setting [7]). Also, the IVIS in the data set with mice [3] (IM) came to 2.06E+09; with mice [3] (IV), 1.06E+09. Moreover, the “% of organ targeting” value is on record as 61.21% in the data set with mice [1] (setting [5]), 0.96% in the data set on mice [1] (setting [6]) and 37.83% in the data set with mice [1] (setting [7]). Besides, the “tissue-targeting specificity (lung vs spleen depending on molar percentage of compound)” value in the data set on mice [1] (certain formulations, Table 2) is listed as “not observed”. Besides, the PDI in data set [2] (setting [8]) worked out at 0.16 ± 0.01; in data set [2] (setting [9]), 0.06 ± 0.02; in data set [2] (setting [10]) it was 0.09; in data set [2] (setting [11]) it was 0.19. Further, the Particle size in data set [2] (setting [8]) is given as 127.47 ± 2.05 nm; in data set [2] (DMG-PEG2000:DSPC:Chol:Lipid 1.40:11.15:38.95:48.50, N/P 10, mRNA LNP, preparation given IM), 111.27 ± 0.84 nm; in data set [2] (setting [9]), 131.20 ± 1.25 nm. The “Particle size (nm)” value in data set [2] (setting [10]) worked out at 90.08 nm; in data set [2] (setting [11]), 65.67 nm.

For `CCCCCCCCCCNC(=O)C(O)CN(CCCCCCCN(CC(O)C(=O)NCCCCCCCCCC)CC(O)C(=O)NCCCCCCCCCC)CC(O)C(=O)NCCCCCCCCCC` (centres unmarked) [Compound L0323], the IVIS came to 7.24E+05 in the data set with mice [1] (setting [12]); 2.95E+06 in the data set with mice [1] (IV, body, DMG-PEG2000:DSPC:Chol:compound 1.40:11.15:38.95:48.50, N/P 20, Fluc-mRNA); 8.40E+05 in the data set on mice [1] (IV, liver, DMG-PEG2000:DSPC:Chol:compound 1.40:11.15:38.95:48.50, N/P 20, Fluc-mRNA); 1.16E+05 in the data set on mice [1] (IV, lung, DMG-PEG2000:DSPC:Chol:compound 1.40:11.15:38.95:48.50, N/P 20, Fluc-mRNA); 9.53E+05 in the data set on mice [1] (IV, spleen, DMG-PEG2000:DSPC:Chol:compound 1.40:11.15:38.95:48.50, N/P 20, Fluc-mRNA). Besides, the “% of organ targeting” value in the data set on mice [1] (IV, liver, DMG-PEG2000:DSPC:Chol:compound 1.40:11.15:38.95:48.50, N/P 20) worked out at 44.01%; in the data set on mice [1] (IV, lung, DMG-PEG2000:DSPC:Chol:compound 1.40:11.15:38.95:48.50, N/P 20), 6.06%; with mice [1] (IV, spleen, DMG-PEG2000:DSPC:Chol:compound 1.40:11.15:38.95:48.50, N/P 20), 49.93%. The same compound yielded a PDI in data set [2] (setting [13]) of 0.14. The “Particle size (nm)” value in data set [2] (setting [13]) came to 94.78 nm. The “Zeta potential (mV)” value in data set [4] (setting [13]) worked out at 8.37 mV.

Regarding `CCCCCCCCCCCCNC(=O)C(O)CNCCCN(C)CCCNCC(O)C(=O)NCCCCCCCCCCCC` (centres unmarked) [Compound L0289], in the data set on mice [1] (setting [14]), the IVIS is given as 1.24E+05. Moreover, the IVIS with mice [1] (setting [15]) worked out at 1.63E+05. Besides, in data set [2] (setting [16]), the PDI is listed as 0.09 and the “Particle size (nm)” value amounted to 132.40 nm. In addition, the “Zeta potential (mV)” value in data set [4] (setting [16]) is given as 11.00 mV.

The compound `CCCCCCCCCCCCNC(=O)C(O)CNCCN(C)CCN(CC(O)C(=O)NCCCCCCCCCCCC)CC(O)C(=O)NCCCCCCCCCCCC` (centres unmarked) [Compound L0290] yielded an IVIS with mice [1] (setting [14]) of 3.06E+05. Also, the IVIS in the data set with mice [1] (setting [15]) turned out to be 1.18E+06. Also, in data set [2] (setting [16]), the PDI amounted to 0.17 and the “Particle size (nm)” value is on record as 89.51 nm. Also, the “Zeta potential (mV)” value in data set [4] (setting [16]) is listed as 15.97 mV.

Consider `CCCCCCCCCCNC(=O)C(O)CN(CCCCCN(CC(O)C(=O)NCCCCCCCCCC)CC(O)C(=O)NCCCCCCCCCC)CC(O)C(=O)NCCCCCCCCCC` (centres unmarked) [Compound L0320], for which the IVIS with mice [1] (setting [12]) worked out at 1.45E+05. The compound also showed an IVIS in the data set with mice [1] (setting [17]) of 6.60E+05. Also, in data set [2] (setting [13]), the PDI was 0.10 and the “Particle size (nm)” value is 120.33 nm. For the same compound, the “Zeta potential (mV)” value in data set [4] (setting [13]) is on record as 10.39 mV.

`CCCCCCCCCCCCNC(=O)C(O)CNCCCN(C)CCCN(CC(O)C(=O)NCCCCCCCCCCCC)CC(O)C(=O)NCCCCCCCCCCCC` (centres unmarked) [Compound L0288]: the IVIS was 1.45E+05 with mice [1] (setting [14]); 6.03E+06 in the data set with mice [1] (setting [18]); 5.25E+05 in the data set on mice [1] (setting [20]); 7.18E+06 with mice [1] (setting [22]); 1.45E+06 in the data set with mice [1] (setting [24]). Further, the “% of organ targeting” value in the data set with mice [1] (setting [19]) was 5.74%; in the data set with mice [1] (setting [21]), 78.38%; in the data set with mice [1] (setting [23]), 15.88%. In addition, in data set [2] (setting [16]), the PDI was 0.12. For the same compound, the “Particle size (nm)” value in data set [2] (setting [16]) was found to be 108.77 nm. Also, in data set [4] (setting [16]), the “Zeta potential (mV)” value came to 12.50 mV.

As to `CCCCCCCCCCCCOC(=O)C(O)CN(CCCCCCCN(CC(O)C(=O)OCCCCCCCCCCCC)CC(O)C(=O)OCCCCCCCCCCCC)CC(O)C(=O)OCCCCCCCCCCCC` (centres unmarked) [Compound L0322], the IVIS is 8.23E+05 in the data set on mice [1] (setting [12]) and 2.72E+05 in the data set with mice [1] (setting [17]). The compound also had a PDI in data set [2] (setting [13]) of 0.40. The “Particle size (nm)” value in data set [2] (setting [13]) is reported as 260.70 nm. For the same compound, the “Zeta potential (mV)” value in data set [4] (setting [13]) is listed as 9.14 mV.

Regarding `CCCCCCCCC(CCCCCC)C(=O)OCCCCCCOC(=O)C(O)CN(CCCN(C)CCCN(CC(O)C(=O)OCCCCCCOC(=O)C(CCCCCC)CCCCCCCC)CC(O)C(=O)OCCCCCCOC(=O)C(CCCCCC)CCCCCCCC)CC(O)C(=O)OCCCCCCOC(=O)C(CCCCCC)CCCCCCCC` (centres unmarked) [Compound L0295], the IVIS in the data set on mice [1] (setting [14]) turned out to be 5.87E+07; in the data set on mice [1] (setting [18]), 9.48E+07; with mice [1] (setting [20]), 2.38E+07; in the data set on mice [1] (setting [22]), 4.20E+06; in the data set on mice [1] (setting [24]) it was 4.37E+07. Besides, the figures for the “% of organ targeting” value with mice [1] (setting [19]), with mice [1] (setting [21]) and in the data set on mice [1] (setting [23]) were 33.17%, 5.87% and 60.96%, respectively. In data set [2] (setting [16]), the PDI is 0.10. Also, in data set [2] (setting [16]), the “Particle size (nm)” value came to 135.33 nm. The “Zeta potential (mV)” value in data set [4] (setting [16]) was 10.63 mV.
